# ChEMBL document CHEMBL1201862, “PubChem BioAssay data set” (2004)
# Activity calls are given as the source filed them.
# Tests used:
# [1] = target: DNA dC->dU-editing enzyme APOBEC-3A (Homo sapiens, UniProt P31941); experiment: APOBEC3A DNA deaminase inhibitors, dose response, biochemical (AID 504722); format: functional
# [2] = target: DNA dC->dU-editing enzyme APOBEC-3G (Homo sapiens, UniProt Q9HC16); experiment: Dose Response confirmation of small molecule APOBEC3G DNA Deaminase Inhibitors via a fluorescence-based single-stranded DNA deaminase assay. [Related pubchem assays (depositor defined):AID493012, AID493028]; format: functional
# Cytochrome P450 2D6 = Cytochrome P450 2D6 (Homo sapiens, UniProt P10635);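 further: CYP2D6 member of a cytochrome P450 panel assay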
# Cytochrome P450 3A4 [3] = target: T1, Cytochrome P450 3A4 (Homo sapiens, UniProt P08684);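 further: CYP3A4 tested as one member of a cytochrome P450 panel screen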
# BJ [4] = experiment: cytotoxicity toward BJ-TERT fibroblasts, dose response, cell-based, RAS-independent, luminescence (AID 1933); format: functional; details: Homo sapiens
# BJ [5] = experiment: cells; format: functional, cell-based; details: Homo sapiens
# BJ [6] = experiment: cytotoxicity toward BJ-TERT-LT-ST fibroblasts, dose response, cell-based, RAS-independent, luminescence (AID 1935); format: functional; details: Homo sapiens;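 further: BJ fibroblasts immortalized with TERT plus LT and ST oncogenes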
# [7] = cytotoxicity toward DRD oncogenic fibroblasts, dose response, cell-based, non-viral oncogenic, luminescence (AID 1934); format: functional; details: Homo sapiens
# Vero [8] = experiment: cells; format: functional, cell-based; details: Chlorocebus sabaeus
# Vero [9] = experiment: cells; format: functional; details: Chlorocebus sabaeus
# [10] = target: T2, E3 ubiquitin-protein ligase XIAP (Homo sapiens, UniProt P98170); experiment: Counter Screen using XIAP-Bir3 for Chemical Antagonists of Bir1/2 domains of IAP-family anti-apoptotic proteins. [Related pubchem assays (depositor defined):AID1018, AID1449, AID1514, AID1638, AID1749, AID1750, AID488957, AID488963]
# [11] = target: T2, E3 ubiquitin-protein ligase XIAP; experiment: XIAP antagonists, biochemical, IAP family, fluorescence polarization (AID 1018); format: functional
# [12] = target: T3, Corticotropin-releasing factor receptor 2/Corticotropin-releasing factor-binding protein (Homo sapiens, UniProt P24387+Q13324); experiment: activators of CRF receptor 2 with binding protein – uHTS hits, confirmation (AID 602473); format: functional; details: read-out: EC50_Mean
# T3 sequence (Q13324 whole entry): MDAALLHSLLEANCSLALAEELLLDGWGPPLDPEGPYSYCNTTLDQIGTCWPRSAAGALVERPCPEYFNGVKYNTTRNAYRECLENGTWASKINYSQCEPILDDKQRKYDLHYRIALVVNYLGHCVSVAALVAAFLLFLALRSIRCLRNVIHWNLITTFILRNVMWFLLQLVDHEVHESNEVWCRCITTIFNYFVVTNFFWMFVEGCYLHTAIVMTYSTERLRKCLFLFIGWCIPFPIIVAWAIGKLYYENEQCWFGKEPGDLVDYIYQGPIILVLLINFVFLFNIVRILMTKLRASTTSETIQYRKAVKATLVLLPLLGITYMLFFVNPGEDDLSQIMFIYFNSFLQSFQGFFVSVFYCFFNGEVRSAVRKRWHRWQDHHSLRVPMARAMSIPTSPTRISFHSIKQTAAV
# T3 sequence (P24387 whole entry): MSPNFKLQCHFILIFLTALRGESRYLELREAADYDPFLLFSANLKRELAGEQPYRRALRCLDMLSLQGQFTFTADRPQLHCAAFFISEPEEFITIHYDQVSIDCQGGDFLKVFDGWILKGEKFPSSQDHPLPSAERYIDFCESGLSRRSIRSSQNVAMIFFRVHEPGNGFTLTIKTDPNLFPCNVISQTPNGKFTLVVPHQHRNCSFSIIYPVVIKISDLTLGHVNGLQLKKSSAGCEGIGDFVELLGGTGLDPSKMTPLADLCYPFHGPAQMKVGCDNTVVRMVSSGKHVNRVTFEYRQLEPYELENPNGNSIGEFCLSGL
# [13] = target: T4, RNA-binding protein pos-1 (Caenorhabditis elegans, UniProt G5EF15); experiment: inhibitors of POS-1/mex-3 RNA binding, dose response, biochemical, fluorescence polarization (AID 1964);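 further: purified POS-1 fused to maltose binding protein made in E. coli; potency of compounds blocking POS-1 binding to fluorescent RNA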
# T4 sequence (G5EF15 whole entry): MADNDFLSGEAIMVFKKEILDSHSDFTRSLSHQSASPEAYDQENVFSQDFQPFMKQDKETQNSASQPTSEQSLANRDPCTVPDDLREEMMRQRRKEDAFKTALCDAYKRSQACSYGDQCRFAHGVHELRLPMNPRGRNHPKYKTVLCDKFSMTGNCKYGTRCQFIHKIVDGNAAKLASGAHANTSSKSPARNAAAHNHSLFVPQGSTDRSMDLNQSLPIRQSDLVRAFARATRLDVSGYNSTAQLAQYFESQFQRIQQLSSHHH
# [14] = target: T5, Zinc finger protein mex-5 (Caenorhabditis elegans, UniProt Q9XUB2); experiment: MEX-5/TCR-2 RNA interaction inhibitors, dose response, biochemical, C. elegans, fluorescence polarization (AID 1960)
# T5 sequence (Q9XUB2 whole entry): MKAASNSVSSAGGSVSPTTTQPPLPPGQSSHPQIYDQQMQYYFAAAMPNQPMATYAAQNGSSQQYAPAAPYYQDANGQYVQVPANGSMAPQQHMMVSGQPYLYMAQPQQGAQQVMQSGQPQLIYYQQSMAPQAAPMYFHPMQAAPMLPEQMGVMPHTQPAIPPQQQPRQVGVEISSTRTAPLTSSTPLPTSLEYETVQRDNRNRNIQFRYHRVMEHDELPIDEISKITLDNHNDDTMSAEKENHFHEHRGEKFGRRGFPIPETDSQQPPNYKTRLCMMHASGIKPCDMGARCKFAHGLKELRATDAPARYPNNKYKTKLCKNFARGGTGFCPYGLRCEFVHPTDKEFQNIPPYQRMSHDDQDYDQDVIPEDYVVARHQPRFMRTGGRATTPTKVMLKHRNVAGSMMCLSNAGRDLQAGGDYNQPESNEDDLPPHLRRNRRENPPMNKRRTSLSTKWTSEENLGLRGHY
# [15] = target: Eukaryotic translation initiation factor 4H (Homo sapiens, UniProt Q15056); experiment: eIF4H inhibition in translation initiation, SAR follow-up (AID 435011); format: functional
# [16] = target: Polyadenylate-binding protein 1 (Homo sapiens, UniProt P11940); experiment: PABP inhibition in translation initiation, SAR follow-up (AID 435018); format: functional
# [17] = HEp-2 cell cytotoxicity, dose response, cytotoxicity control for RSV inhibitor project, HTS (AID 2410); format: functional; details: human respiratory syncytial virus
# HEK293 = experiment: inhibitors of LMP1-driven NF-kB reporter, dose response, cell-based, HEK293, luciferase, cherry-pick (AID 588343); format: functional; details: Homo sapiens
# [18] = target: T6, Calpain-2 catalytic subunit (Sus scrofa, UniProt P43367); experiment: pig calpain II inhibitor potency, dose response, biochemical, fluorogenic peptide substrate (AID 1420); format: functional
# T6 sequence (P43367 whole entry): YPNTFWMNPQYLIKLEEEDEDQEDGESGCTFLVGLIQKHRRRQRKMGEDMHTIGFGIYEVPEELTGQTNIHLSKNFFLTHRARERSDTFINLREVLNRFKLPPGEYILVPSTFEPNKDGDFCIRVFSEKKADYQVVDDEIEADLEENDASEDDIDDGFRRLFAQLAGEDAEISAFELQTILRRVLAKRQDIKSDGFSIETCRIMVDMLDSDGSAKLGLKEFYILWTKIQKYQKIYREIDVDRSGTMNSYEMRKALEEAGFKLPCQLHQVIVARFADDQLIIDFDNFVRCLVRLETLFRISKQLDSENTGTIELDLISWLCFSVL
# [19] = target: T7, Tyrosine-protein phosphatase non-receptor type 7 (Homo sapiens, UniProt P35236); experiment: HePTP (PTPN7) phosphatase inhibitor potency, SAR follow-up, biochemical, set 2 (AID 449736); format: functional
# T7 sequence (P35236 whole entry): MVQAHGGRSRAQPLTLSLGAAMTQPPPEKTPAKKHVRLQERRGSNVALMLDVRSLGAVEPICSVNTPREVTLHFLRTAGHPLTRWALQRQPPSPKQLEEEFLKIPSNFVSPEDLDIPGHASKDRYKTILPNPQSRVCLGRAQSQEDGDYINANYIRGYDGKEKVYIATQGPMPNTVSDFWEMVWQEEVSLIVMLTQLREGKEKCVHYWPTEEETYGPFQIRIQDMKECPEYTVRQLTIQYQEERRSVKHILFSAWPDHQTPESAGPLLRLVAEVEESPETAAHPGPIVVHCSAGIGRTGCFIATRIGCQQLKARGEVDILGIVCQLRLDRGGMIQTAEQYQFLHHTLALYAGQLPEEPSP
# Cytochrome P450 2C19 = Cytochrome P450 2C19 (Homo sapiens, UniProt P33261); experiment: Cytochrome panel assay with activity outcomes. Panel member name: p450-cyp2c19 Compounds with AC50 equal or less than 10 uM are considered active; format: functional
# Cytochrome P450 3A4 [20] = target: T1, Cytochrome P450 3A4; remark: listed apart in the source
# [21] = target: Voltage-dependent T-type calcium channel subunit alpha-1H (Homo sapiens, UniProt O95180); format: functional;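 further: channel activity triggered by adding a high calcium stimulation buffer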
# Cytochrome P450 1A2 = target: T8, Cytochrome P450 1A2 (Homo sapiens, UniProt P05177);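 further: PubChem cytochrome P450 panel assay, CYP1A2 panel member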
# T8 sequence (P05177 whole entry): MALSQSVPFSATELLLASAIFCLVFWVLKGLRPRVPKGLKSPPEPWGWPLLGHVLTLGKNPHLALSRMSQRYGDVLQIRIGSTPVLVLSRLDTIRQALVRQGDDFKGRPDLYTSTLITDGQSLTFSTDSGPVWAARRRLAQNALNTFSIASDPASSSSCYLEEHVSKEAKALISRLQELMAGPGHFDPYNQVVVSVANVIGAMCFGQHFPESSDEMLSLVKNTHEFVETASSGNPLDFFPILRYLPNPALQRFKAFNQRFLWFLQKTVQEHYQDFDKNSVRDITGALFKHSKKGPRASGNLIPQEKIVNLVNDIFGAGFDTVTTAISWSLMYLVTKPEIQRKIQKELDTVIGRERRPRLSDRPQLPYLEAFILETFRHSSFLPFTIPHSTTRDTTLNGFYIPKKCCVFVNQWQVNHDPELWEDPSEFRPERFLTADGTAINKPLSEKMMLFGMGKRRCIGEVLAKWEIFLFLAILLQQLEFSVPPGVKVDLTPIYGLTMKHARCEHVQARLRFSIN
# Cytochrome P450 2C9 = Cytochrome P450 2C9 (Homo sapiens, UniProt P11712)
# Chain of DNA dC->dU-editing enzyme APOBEC-3G (Q9HC16 whole entry): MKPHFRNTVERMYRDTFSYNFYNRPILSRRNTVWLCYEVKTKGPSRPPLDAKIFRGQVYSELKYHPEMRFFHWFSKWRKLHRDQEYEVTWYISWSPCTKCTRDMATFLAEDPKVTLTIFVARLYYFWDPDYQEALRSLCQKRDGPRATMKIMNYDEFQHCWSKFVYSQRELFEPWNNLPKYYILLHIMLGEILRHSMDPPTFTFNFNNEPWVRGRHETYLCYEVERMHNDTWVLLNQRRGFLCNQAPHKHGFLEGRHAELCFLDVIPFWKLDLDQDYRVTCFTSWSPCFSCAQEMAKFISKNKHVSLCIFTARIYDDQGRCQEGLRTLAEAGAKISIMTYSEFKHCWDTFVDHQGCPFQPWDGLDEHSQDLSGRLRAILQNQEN
# T2 sequence (P98170 whole entry): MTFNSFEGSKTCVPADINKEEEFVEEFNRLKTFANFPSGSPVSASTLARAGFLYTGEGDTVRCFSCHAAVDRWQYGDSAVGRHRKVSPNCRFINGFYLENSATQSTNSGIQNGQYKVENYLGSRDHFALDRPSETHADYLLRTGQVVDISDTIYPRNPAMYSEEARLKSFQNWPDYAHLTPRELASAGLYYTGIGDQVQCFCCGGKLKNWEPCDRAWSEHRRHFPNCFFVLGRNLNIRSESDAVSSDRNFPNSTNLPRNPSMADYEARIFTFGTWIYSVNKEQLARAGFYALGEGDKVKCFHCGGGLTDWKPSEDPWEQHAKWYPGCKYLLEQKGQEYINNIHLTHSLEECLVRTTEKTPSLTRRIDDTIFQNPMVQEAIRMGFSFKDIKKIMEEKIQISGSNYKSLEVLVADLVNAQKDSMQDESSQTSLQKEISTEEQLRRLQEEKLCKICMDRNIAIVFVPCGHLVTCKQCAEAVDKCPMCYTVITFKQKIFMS
# Chain of DNA dC->dU-editing enzyme APOBEC-3A (P31941 whole entry): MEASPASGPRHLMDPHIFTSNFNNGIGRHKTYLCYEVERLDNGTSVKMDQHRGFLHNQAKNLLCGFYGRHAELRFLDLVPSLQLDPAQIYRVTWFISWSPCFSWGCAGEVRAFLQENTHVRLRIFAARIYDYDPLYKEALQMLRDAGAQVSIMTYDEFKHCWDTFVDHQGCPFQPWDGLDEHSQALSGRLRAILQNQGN
# T1 sequence (P08684 whole entry): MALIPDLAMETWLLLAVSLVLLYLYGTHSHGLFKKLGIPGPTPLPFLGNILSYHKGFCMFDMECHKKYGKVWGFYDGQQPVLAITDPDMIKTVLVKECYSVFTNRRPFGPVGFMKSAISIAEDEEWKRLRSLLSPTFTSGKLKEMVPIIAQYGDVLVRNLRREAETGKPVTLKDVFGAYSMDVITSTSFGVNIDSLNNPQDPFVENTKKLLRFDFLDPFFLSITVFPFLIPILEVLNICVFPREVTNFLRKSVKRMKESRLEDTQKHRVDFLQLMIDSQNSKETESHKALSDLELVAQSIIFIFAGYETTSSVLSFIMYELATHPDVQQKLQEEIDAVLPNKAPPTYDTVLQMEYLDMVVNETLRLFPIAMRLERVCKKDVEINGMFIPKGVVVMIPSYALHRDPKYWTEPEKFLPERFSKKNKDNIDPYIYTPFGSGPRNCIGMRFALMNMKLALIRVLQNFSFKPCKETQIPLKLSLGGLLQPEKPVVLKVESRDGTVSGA
# Chain of Polyadenylate-binding protein 1 (P11940 whole entry): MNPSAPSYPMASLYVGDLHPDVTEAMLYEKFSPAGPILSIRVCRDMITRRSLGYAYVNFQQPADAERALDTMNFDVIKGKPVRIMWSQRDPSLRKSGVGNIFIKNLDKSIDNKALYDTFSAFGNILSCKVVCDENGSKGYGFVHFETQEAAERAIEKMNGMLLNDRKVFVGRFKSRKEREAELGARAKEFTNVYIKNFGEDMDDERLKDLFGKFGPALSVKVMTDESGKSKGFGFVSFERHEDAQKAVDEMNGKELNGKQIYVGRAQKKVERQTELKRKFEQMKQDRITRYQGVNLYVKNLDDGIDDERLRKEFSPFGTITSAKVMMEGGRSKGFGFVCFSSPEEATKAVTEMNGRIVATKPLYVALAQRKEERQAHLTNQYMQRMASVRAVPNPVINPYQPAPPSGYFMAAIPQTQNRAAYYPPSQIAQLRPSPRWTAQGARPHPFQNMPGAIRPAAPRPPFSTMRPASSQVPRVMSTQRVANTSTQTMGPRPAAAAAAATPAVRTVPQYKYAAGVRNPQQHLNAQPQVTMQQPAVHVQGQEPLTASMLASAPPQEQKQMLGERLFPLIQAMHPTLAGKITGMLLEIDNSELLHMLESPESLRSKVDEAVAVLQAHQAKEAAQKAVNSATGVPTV
# Chain of Voltage-dependent T-type calcium channel subunit alpha-1H (O95180 whole entry): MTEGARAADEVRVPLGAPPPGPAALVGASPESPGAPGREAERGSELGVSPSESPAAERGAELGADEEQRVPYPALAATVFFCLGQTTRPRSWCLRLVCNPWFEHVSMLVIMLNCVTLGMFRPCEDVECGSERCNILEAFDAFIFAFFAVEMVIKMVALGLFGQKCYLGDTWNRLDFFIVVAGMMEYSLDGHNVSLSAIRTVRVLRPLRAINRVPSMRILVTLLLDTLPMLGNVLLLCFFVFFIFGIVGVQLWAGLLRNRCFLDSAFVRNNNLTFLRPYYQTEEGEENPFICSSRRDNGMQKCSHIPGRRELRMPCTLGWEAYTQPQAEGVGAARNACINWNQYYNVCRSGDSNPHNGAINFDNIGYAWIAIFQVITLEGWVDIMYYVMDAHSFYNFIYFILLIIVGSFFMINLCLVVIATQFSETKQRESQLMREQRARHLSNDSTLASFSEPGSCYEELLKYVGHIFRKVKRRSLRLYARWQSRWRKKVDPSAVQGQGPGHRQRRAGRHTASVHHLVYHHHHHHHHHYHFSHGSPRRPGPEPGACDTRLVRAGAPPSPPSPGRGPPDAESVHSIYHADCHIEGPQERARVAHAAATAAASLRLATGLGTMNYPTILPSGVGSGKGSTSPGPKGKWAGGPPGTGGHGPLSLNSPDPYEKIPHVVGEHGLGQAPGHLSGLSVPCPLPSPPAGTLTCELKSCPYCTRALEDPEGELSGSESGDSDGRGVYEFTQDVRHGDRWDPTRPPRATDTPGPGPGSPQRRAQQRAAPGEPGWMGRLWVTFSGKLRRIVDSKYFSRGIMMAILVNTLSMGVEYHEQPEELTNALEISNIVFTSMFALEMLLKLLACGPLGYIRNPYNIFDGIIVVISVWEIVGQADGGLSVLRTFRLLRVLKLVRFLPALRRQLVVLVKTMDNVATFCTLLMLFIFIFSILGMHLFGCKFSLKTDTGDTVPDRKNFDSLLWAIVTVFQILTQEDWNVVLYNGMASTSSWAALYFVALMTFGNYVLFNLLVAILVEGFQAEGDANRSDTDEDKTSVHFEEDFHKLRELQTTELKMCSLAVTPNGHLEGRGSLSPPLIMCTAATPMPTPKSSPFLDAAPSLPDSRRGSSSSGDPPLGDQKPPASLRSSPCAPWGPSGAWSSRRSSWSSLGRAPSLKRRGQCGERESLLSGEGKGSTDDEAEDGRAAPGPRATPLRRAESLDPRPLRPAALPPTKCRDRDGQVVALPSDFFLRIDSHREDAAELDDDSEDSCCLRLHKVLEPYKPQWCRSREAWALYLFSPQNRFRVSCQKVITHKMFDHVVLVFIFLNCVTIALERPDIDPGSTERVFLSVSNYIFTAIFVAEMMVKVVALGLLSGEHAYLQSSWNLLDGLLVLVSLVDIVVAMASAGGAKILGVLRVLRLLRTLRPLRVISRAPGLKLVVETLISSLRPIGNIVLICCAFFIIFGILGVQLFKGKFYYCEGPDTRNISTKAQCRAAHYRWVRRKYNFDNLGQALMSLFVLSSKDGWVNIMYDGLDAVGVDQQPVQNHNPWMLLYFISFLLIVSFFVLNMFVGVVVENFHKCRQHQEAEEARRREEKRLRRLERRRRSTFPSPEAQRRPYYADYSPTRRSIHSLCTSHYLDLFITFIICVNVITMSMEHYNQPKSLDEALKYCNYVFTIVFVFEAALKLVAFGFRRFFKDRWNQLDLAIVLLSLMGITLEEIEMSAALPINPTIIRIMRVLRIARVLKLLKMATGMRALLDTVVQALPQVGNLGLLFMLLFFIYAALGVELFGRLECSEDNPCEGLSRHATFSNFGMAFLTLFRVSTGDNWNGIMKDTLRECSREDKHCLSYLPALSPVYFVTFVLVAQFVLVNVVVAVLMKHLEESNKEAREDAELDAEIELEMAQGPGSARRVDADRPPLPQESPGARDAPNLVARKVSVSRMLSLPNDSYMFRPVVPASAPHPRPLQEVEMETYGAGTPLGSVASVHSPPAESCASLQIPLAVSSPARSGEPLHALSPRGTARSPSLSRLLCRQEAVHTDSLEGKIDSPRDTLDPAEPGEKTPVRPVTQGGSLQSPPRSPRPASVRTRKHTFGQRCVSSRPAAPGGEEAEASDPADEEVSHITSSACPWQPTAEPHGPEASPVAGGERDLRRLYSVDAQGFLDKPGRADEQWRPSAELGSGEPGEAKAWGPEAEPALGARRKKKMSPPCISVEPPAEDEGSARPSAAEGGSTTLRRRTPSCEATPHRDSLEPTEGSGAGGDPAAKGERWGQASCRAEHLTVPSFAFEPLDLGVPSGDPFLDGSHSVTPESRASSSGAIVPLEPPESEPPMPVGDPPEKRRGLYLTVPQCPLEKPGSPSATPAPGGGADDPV
smiles,measurement,setting,value
CCCCn1c(S)nnc1-c1ccc([N+](=O)[O-])cc1,IC50,[1],> 100 µM (inactive)
same,IC50,[2],3.5 µM (active)
Cn1c(=O)n(C)c2cc([N+](=O)[O-])c(N3CCN(C(=O)c4ccccc4Cl)CC3)cc21,AC50,Cytochrome P450 2D6,0.0355 µM (inconclusive)
same,AC50,Cytochrome P450 3A4 [3],inconclusive
Cc1ccc(N(Cc2cc(O)nc3ccccc23)C(=O)CCl)cc1,EC50,BJ [4],1.19 µM (inconclusive)
same,EC50,BJ [5],8.7 µM (active)
same,EC50,BJ [6],8.14 µM (inconclusive)
same,EC50,[7],4.97 µM (inconclusive)
same,IC50,Vero [8],> 25 µM (active)
same,CC50,Vero [9],6.57 µM (active)
CCn1c(CCNC(=O)c2ccc(OC)cc2)nnc1SCc1ccc(Cl)c(Cl)c1,IC50,[10],> 100 µM (inactive)
same,IC50,[11],> 100 µM (not active)
same,EC50,[12],> 53 µM (inactive)
C=CCn1c(S)nnc1-c1sc2nc(C)cc(C)c2c1N,IC50,[1],> 100 µM (inactive)
same,IC50,[2],3.28 µM (active)
CC(C)(C)c1ccc(C(=O)Nc2cccc3ncccc23)cc1,EC50,[13],8.65 µM (active)
same,EC50,[14],5.39 µM (active)
same,IC50,[15],1.14 µM (active)
same,IC50,[16],1.32 µM (active)
Clc1ccc(COn2c(-c3ccccc3)nc3ccccc32)cc1,AC50,Cytochrome P450 3A4 [3],inconclusive
C#CCn1c(S(=O)(=O)Cc2ccc(F)cc2)nc(-c2ccccc2)c1-c1ccccc1,CC50,[17],3.47 µM (active)
same,AC50,HEK293,21.7 µM (active)
same,IC50,Vero [8],3.94 µM (active)
same,CC50,Vero [9],22.2 µM (active)
same,IC50,cells,4.97 µM (active)
OCC1(CCc2ccccc2)CCN(Cc2ccc(OC(F)F)cc2)CC1,IC50,[10],> 100 µM (inactive)
same,IC50,[11],> 100 µM (not active)
CCCCSc1nnc2c(n1)OC(C(=O)c1ccccc1)Nc1ccccc1-2 (stereo not given),IC50,[10],> 100 µM (inactive)
same,IC50,[11],> 50 µM (not active)
same,IC50,[18],> 50 µM (not active)
Nc1c(C(=O)N2CCOCC2)sc(=S)n1-c1ccc(F)c(Cl)c1,IC50,[19],> 100 µM (inactive)
COc1ccccc1N=C1SC(C(=O)Nc2ccccc2)CC(=O)N1C (stereo not given),IC50,[15],> 100 µM (inactive)
same,IC50,[16],> 100 µM (inactive)
CCOC(=O)N/N=C/c1ccc(Oc2ccccc2)cc1,IC50,[10],> 100 µM (inactive)
same,IC50,[11],> 100 µM (not active)
Cc1nnc(S)n1/N=C/c1ccc(Br)o1,IC50,[1],> 100 µM (inactive)
same,IC50,[2],6.93 µM (active)
same,AC50,Cytochrome P450 2C19,inconclusive
same,AC50,Cytochrome P450 3A4 [20],25.1 µM (inconclusive)
Sc1nc(-c2ccccc2)cn1/N=C/c1ccncc1,IC50,[1],> 100 µM (inactive)
same,IC50,[2],2.93 µM (active)
O=c1[nH]c2ccccc2n1CCCN1CCN(C(c2ccccc2)c2ccccc2)CC1 [OXATOMIDE],EC50,[21],5.15 µM (active)
same,AC50,Cytochrome P450 1A2,25.1 µM (inconclusive)
same,AC50,Cytochrome P450 2C9,7.94 µM (inconclusive)
same,AC50,Cytochrome P450 3A4 [3],inconclusive
